Columns and labels:
[1] = target: T1, GST-tagged Tankyrase-2 (873-1166 aa) (Homo sapiens, UniProt Q9H2K2); assay: Tankyrase 2 autoparsylation assay (HTRF enzyme assay); assay type: biochemical
T1 construct: GST-tagged Tankyrase-2 (873-1166 aa)
Description: (§1) The autoparsylation assay was run in two steps: the enzymatic reaction in which GST-tagged Tankyrase-1, resp Tankyrase-2 transferred biotinylated ADP-ribose to itself from biotinylated NAD as co-substrate and the detection reaction where a time resolved FRET between cryptate labelled anti-GST bound to the GST tag of the enzyme and Xlent® labelled-streptavidin bound the biotin-parsylation residue was analysed. The autoparsylation activity was detectable directly via the increase in HTRF signal.
The autoparsylation assay was performed as 384-well HTRF® (Cisbio, Codolet, France) assay format in Greiner low volume nb 384-well microtiter plates and was used for high throughput screen. 250 nM GST-tagged Tankyrase-1 (1023-1327 aa), respectively about 250 nM GST-tagged Tankyrase-2 (873-1166 aa) and 5 μM bio-NAD (Biolog, Life science Inst., Bremen, Germany) as co-substrate were incubated in a total volume of 5 μl (50 mM HEPES, 4 mM Mg-chloride, 0.05% Pluronic F-68, 1.4 mM DTT, 0.5% DMSO, pH 7.7) in the absence or presence of the test compound (10 dilution concentrations) for 90 min at 30° C. The reaction was stopped by the addition of 1 μl 50 mM EDTA solution. 2 μl of the detection solution (1.6 μM SA-Xlent® (Cisbio, Codolet, France), 7.4 nM Anti-GST-K® (Eu-labelled anti-GST, Cisbio, Codolet, France) in 50 mM HEPES, 800 mM KF, 0.1% BSA, 20 mM EDTA, 0.1% CHAPS, pH 7.0) were added. After 1 h incubation at room temperature the HTRF was measured with an Envision multimode reader (Perkin Elmer LAS Germany GmbH) at excitation wavelength 340 nm (laser mode) and emission wavelengths 615 nm and 665 nm. The ratio of the emission signals was determined. The full value used was the inhibitor-free reaction. The pharmacological zero value used was XAV-939 (Tocris) in a final concentration of 5 μM. The inhibitory values (IC50) were determined using either the program Symyx Assay Explorer® or Condosseo® from GeneData.

His-tagged Parp-1 = target: T2, His-tagged Parp-1 (Homo sapiens, UniProt P09874); assay: PARP-1 autoparsylation assay (HTRF); assay type: biochemical; details: read-out: IC50 PARP1
T2 construct: purchased Enzo Life Sciences GmbH, Lörrach, Germany
T2 sequence (P09874 whole entry): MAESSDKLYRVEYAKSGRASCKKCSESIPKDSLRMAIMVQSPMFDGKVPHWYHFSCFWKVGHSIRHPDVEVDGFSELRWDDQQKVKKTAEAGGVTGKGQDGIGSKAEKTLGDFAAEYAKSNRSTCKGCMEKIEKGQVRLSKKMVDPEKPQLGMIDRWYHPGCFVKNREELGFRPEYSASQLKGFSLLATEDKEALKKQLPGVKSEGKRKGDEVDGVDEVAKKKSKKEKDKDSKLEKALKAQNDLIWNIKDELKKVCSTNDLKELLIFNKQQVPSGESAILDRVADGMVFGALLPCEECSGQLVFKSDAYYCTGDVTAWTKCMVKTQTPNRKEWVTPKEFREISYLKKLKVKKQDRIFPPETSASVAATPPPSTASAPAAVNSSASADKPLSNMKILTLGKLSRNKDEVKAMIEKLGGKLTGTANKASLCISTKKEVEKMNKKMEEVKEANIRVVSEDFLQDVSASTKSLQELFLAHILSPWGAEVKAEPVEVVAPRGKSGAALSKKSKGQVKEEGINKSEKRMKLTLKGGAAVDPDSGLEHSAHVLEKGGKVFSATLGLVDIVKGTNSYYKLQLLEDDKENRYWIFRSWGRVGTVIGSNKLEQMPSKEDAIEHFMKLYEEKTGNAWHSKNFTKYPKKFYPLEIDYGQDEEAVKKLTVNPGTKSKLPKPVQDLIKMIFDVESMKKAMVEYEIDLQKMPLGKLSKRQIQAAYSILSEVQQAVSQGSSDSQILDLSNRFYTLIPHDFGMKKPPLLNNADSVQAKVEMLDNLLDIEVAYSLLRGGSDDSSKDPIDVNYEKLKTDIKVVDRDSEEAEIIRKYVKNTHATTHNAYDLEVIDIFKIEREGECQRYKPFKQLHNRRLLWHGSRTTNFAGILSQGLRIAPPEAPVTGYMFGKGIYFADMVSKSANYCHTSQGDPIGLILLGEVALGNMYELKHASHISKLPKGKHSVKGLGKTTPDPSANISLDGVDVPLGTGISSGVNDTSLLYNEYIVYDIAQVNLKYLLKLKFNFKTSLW
Description: Biochemical Activity Testing of PARP-1: Autoparsylation Assay
as §1, with “His-tagged Parp-1” for “GST-tagged Tankyrase-1, resp Tankyrase-2”, “ADP-ribose/ADP-ribose” for “ADP-ribose”, “NAD/NAD” for “NAD”, “anti-His antibody” for “anti-GST”, “His” for “GST”
The autoparsylation assay was performed as 384-well HTRF® (Cisbio, Codolet, France) assay format in Greiner low volume nb 384-well microtiter plates. 35 nM His-tagged Parp-1 (human, recombinant, Enzo Life Sciences GmbH, Lörrach, Germany) and a mixture of 125 nM bio-NAD (Biolog, Life science Inst., Bremen, Germany) and 800 nM NAD as co-substrate were incubated in a total volume of 6 μl (100 mM Tris/HCl, 4 mM Mg-chloride, 0.01% IGEPAL® CA630, 1 mM DTT, 0.5% DMSO, pH 8, 13 ng/μl activated DNA (BPS Bioscience, San Diego, US)) in the absence or presence of the test compound (10 dilution concentrations) for 150 min at 23° C. The reaction was stopped by the addition of 4 μl of the Stop/detection solution (70 nM SA-Xlent® (Cisbio, Codolet, France), 2.5 nM Anti-His-K® (Eu-labelled anti-His, Cisbio, Codolet, France) in 50 mM HEPES, 400 mM KF, 0.1% BSA, 20 mM EDTA, pH 7.0). After 1 h incubation at room temperature the HTRF was measured with an Envision multimode reader (Perkin Elmer LAS Germany GmbH) at excitation wavelength 340 nm (laser mode) and emission wavelengths 615 nm and 665 nm. The ratio of the emission signals was determined. The full value used was the inhibitor-free reaction. The pharmacological zero value used was Olaparib (LClabs, Woburn, US) in a final concentration of 1 μM. The inhibitory values (IC50) were determined using either the program Symyx Assay Explorer® or Condosseo® from GeneData.

T1 sequence (Q9H2K2 873-1166): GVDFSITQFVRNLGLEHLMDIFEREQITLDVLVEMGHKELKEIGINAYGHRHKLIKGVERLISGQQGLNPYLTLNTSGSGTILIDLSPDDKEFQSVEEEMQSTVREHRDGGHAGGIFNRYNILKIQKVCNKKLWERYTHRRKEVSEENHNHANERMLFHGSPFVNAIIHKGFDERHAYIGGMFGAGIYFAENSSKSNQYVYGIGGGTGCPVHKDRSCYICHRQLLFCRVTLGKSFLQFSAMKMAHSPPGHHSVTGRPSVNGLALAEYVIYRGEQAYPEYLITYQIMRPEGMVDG

Q: How did the IC50 [1] turn out when `COc1ccc(N2CCN(c3nc4c(c(=O)[nH]3)CCCC4)CC2)cc1` [Compound A3, 2-[4-(4-methoxy-phenyl)-piperazin-1-yl]-5,6,7,8-tetrahydro-3H-quinazolin-4-one] was run?
A: 300 to 3000 nM

Q: What about the IC50 (His-tagged Parp-1) of the same compound?
A: < 300 nM

Q: Which IC50 [1] does the source give for `O=c1[nH]c(N2CCN(c3ccc(F)cc3)CC2)nc2c1CCCC2` [Compound A6, 2-[4-(4-Fluorophenyl)piperazin-1-yl]-5,6,7,8-tetrahydro-3H-quinazolin-4-one] here?
A: 300 to 3000 nM

Q: What about the IC50 (His-tagged Parp-1) of the same compound?
A: 300 to 3000 nM

Q: For `COc1cccc(N2CCN(c3nc4c(c(=O)[nH]3)CCCC4)CC2)c1` [Compound A7, 2-[4-(3-Methoxyphenyl)piperazin-1-yl]-5,6,7,8-tetrahydro-3H-quinazolin-4-one], which IC50 [1] is on record?
A: 300 to 3000 nM

Q: What about the IC50 (His-tagged Parp-1) of the same compound?
A: 300 to 3000 nM

Q: For `O=c1[nH]c(N2CCN(c3ccccc3Cl)CC2)nc2c1CCCC2` [Compound A9, 2-[4-(2-Chlorophenyl)piperazin-1-yl]-5,6,7,8-tetrahydro-3H-quinazolin-4-one], which IC50 [1] is on record?
A: 300 to 3000 nM

Q: What about the IC50 (His-tagged Parp-1) of the same compound?
A: 300 to 3000 nM

Q: Which IC50 [1] does the source give for `COc1ccccc1N1CCN(c2nc3c(c(=O)[nH]2)CCCC3)CC1` [Compound A12, 2-[4-(2-Methoxyphenyl)piperazin-1-yl]-5,6,7,8-tetrahydro-3H-quinazolin-4-one] here?
A: 300 to 3000 nM

Q: What about the IC50 (His-tagged Parp-1) of the same compound?
A: 300 to 3000 nM

Q: Which IC50 [1] does the source give for `N#Cc1ccccc1N1CCN(c2nc3c(c(=O)[nH]2)CCCC3)CC1` [Compound A33, 2-[4-(4-oxo-5,6,7,8-tetrahydro-3H-quinazolin-2-yl)piperazin-1-yl]benzonitrile] here?
A: 300 to 3000 nM

Q: And the IC50 (His-tagged Parp-1)?
A: 300 to 3000 nM

Q: With `COc1cc(F)ccc1N1CCN(c2nc3c(c(=O)[nH]2)CCCC3)CC1` [Compound A36, 2-[4-(4-fluoro-2-methoxy-phenyl)piperazin-1-yl]-5,6,7,8-tetrahydro-3H-quinazolin-4-one] as the compound, how does the IC50 [1] read?
A: 300 to 3000 nM

Q: What about the IC50 (His-tagged Parp-1) of the same compound?
A: 300 to 3000 nM

Reference: patent US9339503B2, “Tetrahydro-quinazolinone derivatives as TANK and PARP inhibitors” (MERCK PATENT GMBH, priority 2012, dated 2016)
